Entries after “also recorded” stand apart in the source; their conditions may differ.
Key:
[1] = tested on: CD40-expressing target cells; test: ADCC activity of anti-CD40 antibodies (Table 1); assay type: cell-based
soluble CD40 = soluble CD40 (Homo sapiens, UniProt P25942); test: ELISA-type binding to soluble CD40; conditions: ELISA-type assays
Excerpt: (§1) 2, 2000, and PCT International Application No. PCT/US01/30857, also titled “Human Anti-CD40 Antibodies,” filed Oct. 2, 2001, both of which are herein incorporated by reference in their entirety.

cell-surface CD40 = cell-surface CD40 (Homo sapiens, UniProt P25942); test: Flow cytometric CD40-ligand binding blockade and displacement; conditions: flow cytometric assays / FACS
Excerpt: as §1
4, 2003, Nov. 26, 2003, and Apr. 27, 2004, and assigned U.S. Patent Application Nos. 60/517,337, 60/525,579, and 60/565,710, respectively, and International Patent Application No. PCT/US2004/037152, also entitled “Antagonist, Anti-CD40 Monoclonal Antibodies and Methods for Their Use,” filed Nov. 4, 2004; the contents of each of which are herein incorporated by reference in their entirety.

B-CLL cells [2] = test: p38 MAPK signaling in B-CLL cells, four-hour experiment; assay type: cell-based, human; conditions: 4 hours
Description: In the four-hour experiment, approximately 0.8×10^6 B-CLL cells per well were serum starved in 1% FBS-containing media for 4 hours. […] Cell lysates were collected before and 20 minutes after CD40L stimulation. Western blot analysis with antibodies against specific proteins shown were conducted, and equal loading was evaluated by probing with antibodies to total p38 (t-p38) and β-actin.

B-CLL cells [3] = test: p38 MAPK signaling and survival in B-CLL cells, 24-hour experiment; assay type: cell-based, human
Description: In the 24-hour experiment, approximately 0.8×10^6 B-CLL cells per well were placed in full serum (10% FBS)-containing media for 24 hours. […] Western blot analysis with antibodies against specific proteins shown was conducted, and equal loading was evaluated by probing with antibodies against β-actin.

IM-9 cells = test: ADCC, Calcein release with human NK cells, IM-9; assay type: cell-based; conditions: NK:target 10 to 1, 4 hours, read-out: ED50 (percent specific lysis)
Description: Human MM cell lines, KMS-12-BM, IM-9, and ARH-77, were washed 3 times using R2 medium (Pheno red-free RPMI with 2% FBS) and re-suspended in R10 medium (Pheno red-free RPMI with 10% FBS) at the density of 1×10^6/mL. Cells were labeled by adding Calcein AM (final concentration […]) and incubating for 30 minutes at 37° C. in a humidified atmosphere with 5% CO2. Purified human NK cells and Calcein-labeled target cells were mixed in R10 medium at the ratio of 10 to 1 (5×10^4 NK cells and 5×10^3 target cells in […]) and added in U-bottom 96 well plate (Packard's Instrument, Meriden, Conn.). […] 1% NP-40 was added in 3 wells for the maximum cell lysis. Cells were incubated for 4 hours without disturbance at 37° C. in a humidified atmosphere with 5% CO2. The plate was then centrifuged at 300 rpm without brake for 5 minutes. […] supernatant was transferred into a new 96 well plate. The released Calcein in the supernatant was measured in arbitrary fluorescent unit (AFU) at 485 nm excitation and 535 nm emission using Tecan SpectraFluor Plus (Tecan U.S., Inc., Research Triangle, N.C.). The percent of specific lysis was calculated as: 100×(AFU test−AFU spontaneous release)/(AFU maximal release−AFU spontaneous release).
The ED50 was determined for each cell line by plotting the log of antibody concentration versus the percent specific lysis (see FIG. 16).

normal B cells [4] = test: CD40L-induced cytokine secretion from normal B cells (Meso Scale Discovery); assay type: cell-based, human; conditions: 10 μg/ml, 24 hours
Description: Cells (1×10^5 cells per well) were cultured in a 96-well plate in the presence or absence of CD40L (CD40 transfected, formaldehyde fixed CHO cells, 2×10^5 per well). […] Production of hIL-6, hIL-8, hIL-10, hTNF-α, hGM-CSF, hIL-1b, hIL-12p70, MCP-1, and MIP-1β was measured by Meso Scale Discovery® multi-array system (Meso Scale Discovery, Gaithersburg, Md.).

normal B cells [5] = test: CD40L-induced production of VEGF in normal B cells; assay type: cell-based, human
Excerpt: In another experiment, CD40L-induced production of VEGF in normal B cells and CLL cells obtained from patients with CLL is examined in a manner similar to that described above.

B-CLL cells [6] = test: CellTiter-Glo viability of CLL patient PBMCs; assay type: cell-based, human; conditions: 72 hours, 10 μg/ml
Description: Cell viability was determined after 72 hours using the CellTiter-Glo® Luminescent Cell Viability Kit (Promega, Madison, Wis.), which measures cellular ATP, and expressed as Relative Luminescence Units (RLU). Percent blockade was calculated as follows: […]

B-CLL cells [7] = test: cPARP flow cytometry of CLL patient PBMCs; assay type: cell-based, human; conditions: 24 hours, 10 μg/ml
Description: [formula] cPARP analysis by flow cytometry was performed after 24 hours in culture. Cells were treated with FACSLysis buffer (BD Biosciences) and frozen. After fixation in 1% formaldehyde for 45 min, cells were washed and incubated with PE-conjugated mouse anti-human CD19 for 30 min at room temperature (RT). Cells were then permeabilized using 70% ethanol on ice for 30 min and stained for 30 min at RT with rabbit anti-human cPARP antibody or isotype control rabbit IgG along with PerCP-Cy5.5-labeled mouse anti-human CD5. This was followed by incubation with goat anti-rabbit IgG-AlexaFluor 647 for 30 min at RT before fixing with 1% formaldehyde and analyzing by flow cytometry. Percent blockade was calculated as follows: […]

primary B-CLL cells = test: Western blot of cPARP, Mcl-1, Bcl-xl in primary B-CLL cells; assay type: cell-based, human; conditions: 10 μg/ml with rhsCD40L
Description: Whole cell lysates were prepared in RIPA lysis buffer (1% Nonidet P-40, 0.5% sodium deoxycholate, 0.1% Sodium dodecylsulfate in 1× phosphate buffered saline, pH 7.2). 10-20 μg of protein per sample were resolved on a 10% Tris-Glycine gel and transferred to nitrocellulose membranes, and membranes were probed using mAbs specific to human cPARP, Mcl-1, or Bcl-xl. The membranes were stripped and re-probed for β-actin and developed using ECL.

Sequence of cell-surface CD40 (P25942 21-277): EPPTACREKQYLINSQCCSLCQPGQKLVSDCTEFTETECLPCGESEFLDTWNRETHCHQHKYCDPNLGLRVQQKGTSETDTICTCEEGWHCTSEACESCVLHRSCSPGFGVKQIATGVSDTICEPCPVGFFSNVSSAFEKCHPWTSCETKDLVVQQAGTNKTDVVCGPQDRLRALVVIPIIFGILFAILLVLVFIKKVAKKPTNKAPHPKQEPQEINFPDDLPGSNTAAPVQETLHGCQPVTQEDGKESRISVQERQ
Sequence of soluble CD40 (P25942 21-193 limits assumed): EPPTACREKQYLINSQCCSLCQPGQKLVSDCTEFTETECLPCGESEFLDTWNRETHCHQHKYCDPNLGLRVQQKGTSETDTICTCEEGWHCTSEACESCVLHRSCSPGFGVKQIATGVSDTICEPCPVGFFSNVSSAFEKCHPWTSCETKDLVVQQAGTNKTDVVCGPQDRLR

Substance: CHIR-12.12: fully human anti-CD40 monoclonal antibody of the IgG1 isotype from hybridoma cell line 153.8E2.D10.D6.12.12 (ATCC PTA-5543)
- killing of CD40-expressing target cells by ADCC [1]: able to kill CD40-expressing target cells
- binding to soluble CD40 (soluble CD40): bind soluble CD40
- displacement of pre-bound CD40-ligand (cell-surface CD40): displace the pre-bound CD40-ligand; also recorded: can compete off CD40-ligand pre-bound to cell surface CD40
- prevention of CD40-ligand binding to cell-surface CD40 (cell-surface CD40): prevent the binding of CD40-ligand to cell-surface CD40; also recorded: can prevent CD40-ligand binding
- Phospho-IKKα/β activation by CD40L (B-CLL cells [2]; 10 μg/mL): inhibited
- p38 activation by CD40L (B-CLL cells [2]; SB203580 30 and 60 μM, CHIR-12.12 10 μg/mL): fully inhibited
- CD40 expression (B-CLL cells [3]): inhibited
- cleaved Caspase-3 (B-CLL cells [3]; CD40L): induced to a lesser extent
- p38 phosphorylation (B-CLL cells [3]; CD40L): similarly blocked
- cleaved-PARP (B-CLL cells [3]; SB203580 30 and 60 μM, CHIR-12.12 10 μg/mL, CD40L): significantly induced
- Bcl-xl expression (B-CLL cells [3]; especially 60 μM SB203580 and 10 μg/ml CHIR-12.12): blocked
- EC50 (IM-9 cells): 5.9 pM
- cytokine production with antibody alone (agonistic activity) (normal B cells [4]; absence of CD40L): did not produce any of the cytokines above background levels
- inhibition of CD40L-induced MCP-1 secretion (normal B cells [4]; Donor 1): 55.3 % inhibition
- inhibition of CD40L-induced MIP-1β secretion (normal B cells [4]; Donor 1): 54.4 % inhibition
- inhibition of CD40L-induced hIL-6 secretion (normal B cells [4]; Donor 1): 92.2 % inhibition
- inhibition of CD40L-induced hIL-8 secretion (normal B cells [4]; Donor 1): 98.2 % inhibition
- inhibition of CD40L-induced hIL-10 secretion (normal B cells [4]; Donor 1): 90.5 % inhibition
- inhibition of CD40L-induced hTNF-α secretion (normal B cells [4]; Donor 1): 92.8 % inhibition
- inhibition of CD40L-induced MIP-1β secretion (normal B cells [4]; Donor 2): 92 % inhibition
- inhibition of CD40L-induced hIL-6 secretion (normal B cells [4]; Donor 2): 99.9 % inhibition
- inhibition of CD40L-induced hIL-8 secretion (normal B cells [4]; Donor 2): 84.7 % inhibition
- inhibition of CD40L-induced hTNF-α secretion (normal B cells [4]; Donor 2): 97.4 % inhibition
- inhibition of CD40L-induced MCP-1 secretion (normal B cells [4]; Donor 3): 25.7 % inhibition
- inhibition of CD40L-induced MIP-1β secretion (normal B cells [4]; Donor 3): 92.5 % inhibition
- inhibition of CD40L-induced hIL-6 secretion (normal B cells [4]; Donor 3): 99.3 % inhibition
- inhibition of CD40L-induced hIL-8 secretion (normal B cells [4]; Donor 3): 99.5 % inhibition
- inhibition of CD40L-induced hIL-10 secretion (normal B cells [4]; Donor 3): 94.4 % inhibition
- inhibition of CD40L-induced hTNF-α secretion (normal B cells [4]; Donor 3): 98.5 % inhibition
- CD40L-induced production of VEGF (normal B cells [5]): inhibit CD40L-induced production of VEGF
- blockade of CD40L-promoted survival (B-CLL cells [6]): in each case, these effects were blocked
- blockade of CD40L-promoted survival (B-CLL cells [7]): in each case, these effects were blocked
- cPARP levels and Mcl-1 and Bcl-xl expression (Western blot) (primary B-CLL cells): blocked the CD40L-mediated decrease of cPARP levels and CD40L-mediated increase of Mcl-1 and Bcl-xl expression

Source: US8337851B2, “Methods of monitoring the efficacy of anti-CD40 antibodies in treating a subject for a CD40-expressing cancer” (Novartis AG, priority 2005, dated 2012)
